Data on one compound can be found in US20210293825A1, “METHODS FOR PRECISION THERAPEUTIC TARGETING OF HUMAN CANCER CELL MOTILITY AND KITS THEREOF” (UNITED STATES GOVERNMENT AS REPRESENTED BY THE DEPARTMENT …, priority 2018, published 2021).

Structures are written as SMILES. Read-outs that look alike come from different tables or passages of the source.

Series [1] in a line: Examination of organ function after a single intravenous dose. It is filed as in vivo. To be noted: single IV dose 15, 75 or 125 mg/kg, day 8 and 14. As for the experimental part: Histologic examination of tissue. Organs of athymic male mice stained with H&E, Trichrome or Giemsa were microscopically examined by a mouse pathologist in a blinded fashion, and toxicity scored using an established semi-quantitative histological scoring system (Knodell, R. G. et al., Hepatology 1, 431-5 (1981)) (FIG. 14). The following clinical chemistry parameters were measured in blood of CD1 male and female mice by Charles River Research Animal Diagnostic Services: cholesterol, triglycerides, alanine aminotransferase (ALT), aspartate aminotransferase (AST), total bilirubin, glucose, phosphorus, total protein, calcium, blood urea nitrogen (BUN), creatinine, albumin, Na, K, Cl, white blood cells (with differential), red blood cells, hemoglobin, and platelets.
For examination of organ function, studies used cohorts of 22-24 gm N=3 female and N=3 male (i.e., N=6 mice total per dose cohort) CD1 (ICR) mice (Charles River). […] On day 8 and 14, important organs were weighed, and the following parameters measured in blood: cholesterol, triglycerides, alanine aminotransferase (ALT), aspartate aminotransferase (AST), total bilirubin, glucose, phosphorus, total protein, calcium, blood urea nitrogen (BUN), creatinine, albumin, Na, K, Cl, white blood cells (with differential), red blood cells, hemoglobin, platelets.

Series [2] is described as follows: Plasma KBU2046 concentration after dosing in chow. It is filed as in vivo, athymic mice. The following applies: Balb/c athymic, mouse, oral. Here is the method:
Cohorts of N=12 athymic mice bearing human PCa PC3-M cell orthotopic implants (a), or of N=5 non-tumor bearing athymic mice (b), were treated with KBU2046 incorporated into chow, and resultant lung metastasis (a) or plasma KBU2046 concentration (b) measured. Values are the mean±SEM. The relationship between dose and metastasis was evaluated by two-sided ANOVA (a). FIG. 2c a comprehensive characterization of KBU2046 pharmacokinetics. CD1 mice were dosed with 100 mg KBU2046/kg via oral gavage or intravenous injection (iv), and blood collected at the indicated time points (data from mice dosed at 25 mg/kg are in FIG. 12, and corroborate 100 mg/kg findings). For each route and time point, N=3 mice were sampled. Individual data points are the resultant plasma concentrations from individual mice, and are the mean of N=2 measurements. The dotted horizontal line denotes a concentration of 24 nM, which was the concentration of KBU2046 measured in the blood of mice whose metastasis were suppressed by 92% (a-b). […]
KBU2046 Quantification and Pharmacokinetics. […]
Plasma KBU2046 concentrations were measured in duplicate by liquid chromatography-tandem mass spectrometry after sample preparation by solid-phase extraction. […] The mass-to-charge ratios of the precursor-to-product ion reactions monitored were 243.5→125.1 for KBU2046 and 257.0→165.0 for the internal standard. […]

Series [3] deals with estrogen-responsive genes in MCF-7 cells. In words: Induction of estrogen-responsive genes (qRT/PCR). The format is cell-based, human. The text has this: FIG. 1a is a schematic flow of probe synthesis and development strategy. […] Values are mean±SEM of a single experiment in replicates of N=4, with similar findings in multiple separate experiments (also N=4). […] Values are mean±SEM of a single experiment in replicates of N=24, with similar findings in a separate experiment (also N=24). *Denotes Student's t test P value <0.05, compared to controls. […] Values are mean±SEM from N>2 separate experiments, each in replicates of N=3. […] Values are the mean±SD number of total, CFU-GM, CFU-GEMM or BFU-E colonies at 14 days after treatment with KBU2046, from a single experiment in replicates of N=2. […] Values are the mean±SD of a single experiment, with similar results seen in a separate experiment, both in replicates of N=2.
Quantitative Reverse Transcriptase Polymerase Chain Reaction. RNA was isolated and qRT/PCR was performed as described (Ding, Y. et al., J Biomol Tech 18, 321-30 (2007)), analyzed by the 2^−ΔΔCt method (Livak, K. J. et al., Methods 25, 402-8 (2001)), using primer/probes sets (ABI), HSP90α (Hs00743767_sH), HSP90β (Hs00427665_g1), trefoil factor 1 (TFF1; Hs00907239 ml), cathepsin D (CTSD; Hs00157205_m1), progesterone receptor (PGR; Hs01556702 ml) and GAPDH (Hs99999905_m1). Assays were repeated, each in replicates of N=2.

For the compound `O=C1c2ccccc2OCC1c1ccc(F)cc1` (racemic) [KBU2046, (±)-3(4-fluorophenyl)chroman-4-one], the “organ weights and blood parameters” value in series [1] is “No abnormal alterations in any of these parameters were observed”. Moreover, the concentration at 35 days in series [2] (doses that decreased metastasis, read-out: plasma concentrations) is 1.1 to 24 nM; in series [2] (read-out: concentration in blood of mice whose metastasis were suppressed by 92%) it was 24 nM. In addition, the “activation of estrogen-responsive genes” value in series [3] was “did not activate estrogen-responsive genes”.
